From the NIST ThermoML archive (doi:10.1016/j.jct.2016.06.016)

Experiment: refractive index (Na D-line) (dimensionless); xn = mol fraction of the nth substance listed
Settings: 100 kPa, Liquid, Standard Abbe refractometry

CCOC(=O)CCC(=O)OCC [diethyl butanedioate] + CCCCCCO
refractive index
Settings | x1 = 0.0999 | x1 = 0.2 | x1 = 0.3001 | x1 = 0.4 | x1 = 0.4999 | x1 = 0.6 | x1 = 0.7002 | x1 = 0.7999 | x1 = 0.9 | x1 = 1
288.15 K | 1.4192 | 1.419 | 1.4189 | 1.4191 | 1.4193 | 1.4197 | 1.4202 | 1.4207 | 1.4212 | 1.4217
293.15 K | 1.4172 | 1.4169 | 1.4168 | 1.417 | 1.4172 | 1.4176 | 1.418 | 1.4185 | 1.419 | 1.4195
298.15 K | 1.4152 | 1.4148 | 1.4147 | 1.4148 | 1.415 | 1.4154 | 1.4158 | 1.4163 | 1.4168 | 1.4173
303.15 K | 1.4131 | 1.4127 | 1.4126 | 1.4127 | 1.4129 | 1.4133 | 1.4136 | 1.4142 | 1.4147 | 1.4151
308.15 K | 1.4111 | 1.4107 | 1.4105 | 1.4106 | 1.4108 | 1.4111 | 1.4115 | 1.412 | 1.4125 | 1.4129
313.15 K | 1.409 | 1.4086 | 1.4084 | 1.4084 | 1.4086 | 1.4089 | 1.4093 | 1.4098 | 1.4103 | 1.4108
318.15 K | 1.407 | 1.4065 | 1.4063 | 1.4063 | 1.4064 | 1.4068 | 1.4071 | 1.4076 | 1.4082 | 1.4088
323.15 K | 1.4049 | 1.4044 | 1.4042 | 1.4042 | 1.4043 | 1.4046 | 1.405 | 1.4054 | 1.406 | 1.4067

CCOC(=O)CCC(=O)OCC [diethyl butanedioate] + CCCCO
refractive index
Settings | x1 = 0.1 | x1 = 0.2001 | x1 = 0.3 | x1 = 0.3999 | x1 = 0.5 | x1 = 0.6001 | x1 = 0.6998 | x1 = 0.7999 | x1 = 0.8997 | x1 = 1
288.15 K | 1.4042 | 1.4069 | 1.4094 | 1.4116 | 1.4137 | 1.4156 | 1.4173 | 1.419 | 1.4204 | 1.4217
293.15 K | 1.4021 | 1.4048 | 1.4072 | 1.4094 | 1.4115 | 1.4134 | 1.4151 | 1.4168 | 1.4182 | 1.4195
298.15 K | 1.4 | 1.4027 | 1.405 | 1.4073 | 1.4093 | 1.4112 | 1.4129 | 1.4146 | 1.416 | 1.4173
303.15 K | 1.3979 | 1.4005 | 1.4029 | 1.4051 | 1.4071 | 1.409 | 1.4107 | 1.4123 | 1.4138 | 1.4151
308.15 K | 1.3958 | 1.3983 | 1.4007 | 1.4029 | 1.4049 | 1.4068 | 1.4085 | 1.4101 | 1.4116 | 1.4129
313.15 K | 1.3936 | 1.3962 | 1.3985 | 1.4007 | 1.4027 | 1.4046 | 1.4063 | 1.4079 | 1.4094 | 1.4108
318.15 K | 1.3915 | 1.394 | 1.3963 | 1.3985 | 1.4005 | 1.4024 | 1.4041 | 1.4058 | 1.4073 | 1.4088
323.15 K | 1.3894 | 1.3918 | 1.3942 | 1.3963 | 1.3983 | 1.4002 | 1.402 | 1.4036 | 1.4052 | 1.4067

CCOC(=O)CCC(=O)OCC [diethyl butanedioate] + CCCO
refractive index
Settings | x1 = 0.1 | x1 = 0.2 | x1 = 0.2999 | x1 = 0.3998 | x1 = 0.4999 | x1 = 0.6001 | x1 = 0.7001 | x1 = 0.8002 | x1 = 0.8997 | x1 = 1
288.15 K | 1.394 | 1.3993 | 1.4037 | 1.4075 | 1.4107 | 1.4135 | 1.416 | 1.4182 | 1.4201 | 1.4217
293.15 K | 1.3918 | 1.3971 | 1.4016 | 1.4053 | 1.4085 | 1.4113 | 1.4138 | 1.416 | 1.4179 | 1.4195
298.15 K | 1.3897 | 1.395 | 1.3994 | 1.4031 | 1.4063 | 1.4091 | 1.4116 | 1.4138 | 1.4157 | 1.4173
303.15 K | 1.3876 | 1.3928 | 1.3972 | 1.4009 | 1.4041 | 1.4069 | 1.4094 | 1.4116 | 1.4135 | 1.4151
308.15 K | 1.3854 | 1.3906 | 1.3949 | 1.3986 | 1.4018 | 1.4047 | 1.4072 | 1.4094 | 1.4113 | 1.4129
313.15 K | 1.3831 | 1.3883 | 1.3927 | 1.3964 | 1.3996 | 1.4025 | 1.4049 | 1.4072 | 1.4091 | 1.4108
318.15 K | 1.3809 | 1.3861 | 1.3905 | 1.3942 | 1.3974 | 1.4002 | 1.4027 | 1.4049 | 1.4069 | 1.4088
323.15 K | 1.3787 | 1.3839 | 1.3882 | 1.392 | 1.3952 | 1.398 | 1.4005 | 1.4027 | 1.4048 | 1.4067
